In US6914045B2, “Glycopeptide antibiotics” (Wyeth Holdings Corporation, priority 2001, dated 2005):
≈ marks a conversion by molar mass, not a printed value.

Experiments:
Enterococcus sp. = assay: in vitro antibacterial evaluation, MIC by broth dilution; format: cell-based; details: broth dilution, 18 hours at 35° C.
Summary of the method: (§1)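 MIC = lowest antibiotic concentration preventing visible growth; inoculum 5×10^5 CFU/mL; drug range 64-0.06 μg/mL; Muller-Hinton II […]; NCCLS M7-A2 guidance.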

Streptococcus sp. = assay: as above; format: cell-based; details: broth dilution, 18 hours at 35° C.
Summary of the method: as §1

Staphylococcus sp. = assay: as above; format: cell-based; details: broth dilution, 18 hours at 35° C.
Summary of the method: as §1

[1] = tested on: Staphylococcus aureus-SMITH (GC 4543); assay: acute lethal infection in mice; format: in vivo; details: acute lethal infection, female CD-1 mice, intraperitoneal challenge, intravenous 30 min. after infection, 7 day survival
Summary of the method: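 Intraperitoneal challenge of female CD-1 mice with a bacterial dose lethal to untreated animals within 24-48 hr; single iv treatment 30 min later, 5 mice per dose level. Survival is scored at day 7 and pooled from three experiments to give the median effective dose.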

Escherichia coli = assay: in vitro antibacterial evaluation, MIC by broth dilution; format: cell-based; details: 18 hours at 35° C.

CC(c1ccccc1)C1NC(=O)CNC(=O)C(CO)NC(=O)C(C(O)C2CNC(=N)N2C2OC(CO)C(O)C(O)C2O)NC(=O)C(C(O)C2CNC(=N)N2)NC(=O)C(Cc2ccc(OC3OC(CO)C(OC4OC(COCc5ccc(OCc6ccccc6)cc5)C(O)C(O)C4O)C(O)C3O)cc2)NC1=O (stereo not drawn) [Example 231, Cyclo[glycyl-β-methylphenylalanyl-O-[4-O-[6-O-[4-(phenylmethoxy)benzyl]hexopyranosyl]-hexopyranosyl]tyrosyl-3-(2-iminoimidazolidin-4-yl)seryl-3-(3-hexopyranosyl-2-iminoimidazolidin-4-yl)serylseryl]]
MIC Enterococcus avium (GC 4558) (Enterococcus sp.): 2 to 4 µg/mL | MIC Enterococcus faecalis (ATCC 29212) (Enterococcus sp.): 4 µg/mL (≈ 2.68 µM) | MIC Enterococcus faecalis (GC 2242) (Enterococcus sp.): 4 µg/mL (≈ 2.68 µM) | MIC Enterococcus faecalis (GC 2691) (Enterococcus sp.): 2 to 4 µg/mL | MIC Enterococcus faecalis (GC 3059) (Enterococcus sp.): 2 to 4 µg/mL | MIC Enterococcus faecalis (GC 4552) (Enterococcus sp.): 4 µg/mL (≈ 2.68 µM) | MIC Enterococcus faecalis (GC 4553) (Enterococcus sp.): 4 µg/mL (≈ 2.68 µM) | MIC Enterococcus faecalis (GC 4554) (Enterococcus sp.): 4 µg/mL (≈ 2.68 µM) | MIC Enterococcus faecalis (GC 6189) (Enterococcus sp.): 2 to 4 µg/mL | MIC Enterococcus faecium (GC 2243) (Enterococcus sp.): 4 µg/mL (≈ 2.68 µM) | MIC Enterococcus faecium (GC 4556) (Enterococcus sp.): 4 µg/mL (≈ 2.68 µM) | MIC Enterococcus faecium (GC 4557) (Enterococcus sp.): 1 to 2 µg/mL | MIC Enterococcus faecalis (ATCC 29212) (Enterococcus sp.; inoculum 5×10^5 CFU/mL, strain ATCC 29212): 4 µg/mL (≈ 2.68 µM) | MIC Enterococcus faecalis (GC 2242) (Enterococcus sp.; inoculum 5×10^5 CFU/mL, strain GC 2242): 4 µg/mL (≈ 2.68 µM) | MIC Enterococcus faecium (GC 2243) (Enterococcus sp.; inoculum 5×10^5 CFU/mL, strain GC 2243): 4 µg/mL (≈ 2.68 µM) | MIC Enterococcus faecalis (GC 2691) (Enterococcus sp.; inoculum 5×10^5 CFU/mL, strain GC 2691): 2 to 4 µg/mL | MIC Enterococcus faecalis (GC 3059) (Enterococcus sp.; inoculum 5×10^5 CFU/mL, strain GC 3059): 2 to 4 µg/mL | MIC Enterococcus faecalis (GC 4552) (Enterococcus sp.; inoculum 5×10^5 CFU/mL, strain GC 4552): 4 µg/mL (≈ 2.68 µM) | MIC Enterococcus faecalis (GC 4553) (Enterococcus sp.; inoculum 5×10^5 CFU/mL, strain GC 4553): 4 µg/mL (≈ 2.68 µM) | MIC Enterococcus faecalis (GC 4554) (Enterococcus sp.; inoculum 5×10^5 CFU/mL, strain GC 4554): 4 µg/mL (≈ 2.68 µM) | MIC Enterococcus faecium (GC 4556) (Enterococcus sp.; inoculum 5×10^5 CFU/mL, strain GC 4556): 4 µg/mL (≈ 2.68 µM) | MIC Enterococcus faecium (GC 4557) (Enterococcus sp.; inoculum 5×10^5 CFU/mL, strain GC 4557): 1 to 2 µg/mL | MIC Enterococcus avium (GC 4558) (Enterococcus sp.; inoculum 5×10^5 CFU/mL, strain GC 4558): 2 to 4 µg/mL | MIC Enterococcus faecalis (GC 6189) (Enterococcus sp.; inoculum 5×10^5 CFU/mL, strain GC 6189): 2 to 4 µg/mL | MIC Streptococcus agalactiae (GC 4564) (Streptococcus sp.): <0.06 µg/mL | MIC Streptococcus pneumoniae (ATCC 6301) (Streptococcus sp.): <0.06 µg/mL | MIC Streptococcus pneumoniae (GC 1894) (Streptococcus sp.): <0.06 µg/mL | MIC Streptococcus pneumoniae (GC 4565) (Streptococcus sp.): <0.06 µg/mL | MIC Streptococcus pyogenes (GC 4563) (Streptococcus sp.): <0.06 µg/mL | MIC Streptococcus pneumoniae (ATCC 6301) (Streptococcus sp.; inoculum 5×10^5 CFU/mL, strain ATCC 6301): <0.06 µg/mL | MIC Streptococcus pneumoniae (GC 1894) (Streptococcus sp.; inoculum 5×10^5 CFU/mL, strain GC 1894): <0.06 µg/mL | MIC Streptococcus pyogenes (GC 4563) (Streptococcus sp.; inoculum 5×10^5 CFU/mL, strain GC 4563): <0.06 µg/mL | MIC Streptococcus agalactiae (GC 4564) (Streptococcus sp.; inoculum 5×10^5 CFU/mL, strain GC 4564): <0.06 µg/mL | MIC Streptococcus pneumoniae (GC 4565) (Streptococcus sp.; inoculum 5×10^5 CFU/mL, strain GC 4565): <0.06 µg/mL | MIC Coagulase Negative Staphylococcus (GC 4547) (Staphylococcus sp.): 1 to 2 µg/mL | MIC Coagulase Negative Staphylococcus (GC 4548) (Staphylococcus sp.): 0.5 to 1 µg/mL | MIC Coagulase Negative Staphylococcus (GC 4549) (Staphylococcus sp.): 0.25 to 0.5 µg/mL | MIC Coagulase Negative Staphylococcus (GC 4551) (Staphylococcus sp.): 1 µg/mL (≈ 0.67 µM) | MIC Coagulase Negative Staphylococcus (GC 6257) (Staphylococcus sp.): 0.5 to 1 µg/mL | MIC Staphylococcus aureus (ATCC 29213) (Staphylococcus sp.): 1 to 4 µg/mL | MIC Staphylococcus aureus (GC 1131) (Staphylococcus sp.): 2 to 4 µg/mL | MIC Staphylococcus aureus (GC 3051) (Staphylococcus sp.): 1 to 2 µg/mL | MIC Staphylococcus aureus (GC 3053) (Staphylococcus sp.): 1 to 2 µg/mL | MIC Staphylococcus aureus (GC 4541) (Staphylococcus sp.): 1 to 4 µg/mL | MIC Staphylococcus aureus (GC 4542) (Staphylococcus sp.): 2 to 4 µg/mL | MIC Staphylococcus aureus (GC 4544) (Staphylococcus sp.): 2 to 4 µg/mL | MIC Staphylococcus aureus (GC 4545) (Staphylococcus sp.): 1 to 4 µg/mL | MIC Staphylococcus aureus-SMITH (GC 4543) (Staphylococcus sp.): 2 µg/mL (≈ 1.34 µM) | MIC Staphylococcus haemolyticus (GC 4546) (Staphylococcus sp.): 1 to 4 µg/mL | MIC Staphylococcus aureus (ATCC 29213) (Staphylococcus sp.; strain ATCC 29213): 1 to 4 µg/mL | MIC Staphylococcus aureus (GC 1131) (Staphylococcus sp.; strain GC 1131): 2 to 4 µg/mL | MIC Staphylococcus aureus (GC 3051) (Staphylococcus sp.; strain GC 3051): 1 to 2 µg/mL | MIC Staphylococcus aureus (GC 3053) (Staphylococcus sp.; strain GC 3053): 1 to 2 µg/mL | MIC Staphylococcus aureus (GC 4541) (Staphylococcus sp.; strain GC 4541): 1 to 4 µg/mL | MIC Staphylococcus aureus (GC 4542) (Staphylococcus sp.; strain GC 4542): 2 to 4 µg/mL | MIC Staphylococcus aureus-SMITH (GC 4543) (Staphylococcus sp.; strain GC 4543): 2 µg/mL (≈ 1.34 µM) | MIC Staphylococcus aureus (GC 4544) (Staphylococcus sp.; strain GC 4544): 2 to 4 µg/mL | MIC Staphylococcus aureus (GC 4545) (Staphylococcus sp.; strain GC 4545): 1 to 4 µg/mL | MIC Staphylococcus haemolyticus (GC 4546) (Staphylococcus sp.; strain GC 4546): 1 to 4 µg/mL | MIC Coagulase Negative Staphylococcus (GC 4547) (Staphylococcus sp.; strain GC 4547): 1 to 2 µg/mL | MIC Coagulase Negative Staphylococcus (GC 4548) (Staphylococcus sp.; strain GC 4548): 0.5 to 1 µg/mL | MIC Coagulase Negative Staphylococcus (GC 4549) (Staphylococcus sp.; strain GC 4549): 0.25 to 0.5 µg/mL | MIC Coagulase Negative Staphylococcus (GC 4551) (Staphylococcus sp.; strain GC 4551): 1 µg/mL (≈ 0.67 µM) | MIC Coagulase Negative Staphylococcus (GC 6257) (Staphylococcus sp.; strain GC 6257): 0.5 to 1 µg/mL | median effective dose (ED50), Staphylococcus aureus-SMITH (GC 4543) [1]: 0.25 mg/kg | MIC Escherichia coli (ATCC 25922) (Escherichia coli): >128 µg/mL | MIC Escherichia coli (GC 4559) (Escherichia coli): >128 µg/mL | MIC Escherichia coli (GC 4560) (Escherichia coli): 0.5 to 2 µg/mL
